Measured values taken from the CheMixHub viscosity set.

Assay: xn = mol fraction of the nth substance listed

CCOCCO + NC=O
101 kPa
Settings	viscosity [mPa·s]
303 K, x2 = 0.1539	2.222
303 K, x2 = 0.3334	2.676
303 K, x2 = 0.4617	2.99
303 K, x2 = 0.5714	3.203
303 K, x2 = 0.6669	3.477
303 K, x2 = 0.7501	3.576
303 K, x2 = 0.8235	3.446
303 K, x2 = 0.8889	3.199
303 K, x2 = 0.9474	3.008
303.15 K, x2 = 0.8063	3.495
313 K, x2 = 0.1539	1.769
313 K, x2 = 0.3334	2.075
313 K, x2 = 0.4617	2.139
313 K, x2 = 0.5714	2.481
313 K, x2 = 0.6669	2.647
313 K, x2 = 0.7501	2.752
313 K, x2 = 0.8235	2.588
313 K, x2 = 0.8889	2.513
323.15 K, x2 = 0.2009	1.415

CCOCCO + NCCO
viscosity [mPa·s], 101 kPa
Settings	293.15 K	298.15 K	303.15 K	308.15 K	313.15 K	318.15 K	323.15 K
x2 = 0.141	2.898	2.544	2.246	1.998	1.786	1.605	1.449
x2 = 0.387	5.417	4.594	3.935	3.401	2.963	2.6	2.297
x2 = 0.596	9.217	7.588	6.312	5.319	4.527	3.89	3.371
x2 = 0.775	14.17	11.37	9.259	7.642	6.388	5.402	4.614
x2 = 0.93	20.26	15.94	12.77	10.37	8.539	7.122	6.005

Cc1cccc(Cl)c1 + Nc1cccc(Cl)c1
viscosity [mPa·s], 100 kPa
Settings	x2 = 0.0705	x2 = 0.1546	x2 = 0.2565	x2 = 0.3413	x2 = 0.4391	x2 = 0.5101	x2 = 0.6494	x2 = 0.7592	x2 = 0.8887
303.15 K	0.9978	1.301	1.665	1.967	2.313	2.563	3.05	3.431	3.876
308.15 K	0.9306	1.202	1.529	1.8	2.11	2.333	2.769	3.109	3.505
313.15 K	0.8678	1.109	1.398	1.636	1.909	2.106	2.489	2.788	3.137
318.15 K	0.8037	1.014	1.265	1.473	1.71	1.88	2.212	2.471	2.771

CCOCCO + Nc1ccccc1
303.15 K, 101 kPa
Settings	viscosity [mPa·s]
x2 = 0.1062	2.266
x2 = 0.2109	2.394
x2 = 0.3142	2.523
x2 = 0.4162	2.74
x2 = 0.5167	2.94
x2 = 0.616	3.114
x2 = 0.7139	3.277
x2 = 0.8105	3.435
x2 = 0.9059	3.595

CC(C)CCCCCCCOC(=O)c1ccccc1C(=O)OCCCCCCCC(C)C + O
viscosity [mPa·s], 101 kPa
Settings	293.23 K	298.26 K
x2 = 0.0005	122.8	87.79
x2 = 0.00265	122.3	87.38

CC(C)CCO + O
Settings	viscosity [mPa·s]
293.15 K, 101.33 kPa, x1 = 0.0021	1.074
293.15 K, 101.33 kPa, x1 = 0.0042	1.123
293.15 K, 101.33 kPa, x1 = 0.0052	1.47
298.15 K, 101 kPa, x2 = 0.0019	3.738
298.15 K, 101 kPa, x2 = 0.0485	3.634
298.15 K, 101 kPa, x2 = 0.091	3.563
298.15 K, 101 kPa, x2 = 0.1325	3.518
298.15 K, 101 kPa, x2 = 0.1769	3.49
298.15 K, 101 kPa, x2 = 0.2065	3.482
298.15 K, 101 kPa, x2 = 0.2272	3.48
298.15 K, 101 kPa, x2 = 0.2538	3.486
298.15 K, 101 kPa, x2 = 0.3132	3.518
303.15 K, 101.33 kPa, x1 = 0.0021	0.851
303.15 K, 101.33 kPa, x1 = 0.0042	0.894
303.15 K, 101.33 kPa, x1 = 0.0052	0.907
313.15 K, 101.33 kPa, x1 = 0.0021	0.693
313.15 K, 101.33 kPa, x1 = 0.0042	0.721
323.15 K, 101.33 kPa, x1 = 0.0021	0.59
323.15 K, 101.33 kPa, x1 = 0.0042	0.617

CC[N+](CC)(CC)CC.[Br-] + O
298.15 K, 101 kPa
Settings	viscosity [mPa·s]
x1 = 0.0009	0.8894
x1 = 0.0089	1.059
x1 = 0.0177	1.314
x1 = 0.0348	2.397

C[C@@H](O)[C@H](N)C(=O)[O-].[Na+] + O
viscosity [mPa·s], 101 kPa
Settings	x1 = 0.004484	x1 = 0.008927	x1 = 0.01333	x1 = 0.0177	x1 = 0.02202	x1 = 0.02631	x1 = 0.03478	x1 = 0.0431	x1 = 0.05127
293.15 K	1.122	1.27	1.439	1.636	1.856	2.096	2.659	3.317	4.073
303.15 K	0.9	1.012	1.138	1.279	1.425	1.594	1.993	2.414	2.986
313.15 K	0.734	0.821	0.914	1.024	1.132	1.258	1.55	1.858	2.25
323.15 K	0.612	0.681	0.755	0.84	0.925	1.021	1.242	1.482	1.767
